The values below come from US7868005B2, “Pyrazinyl substituted piperazine-piperidines with CXCR3 antagonist activity” (Schering Corporation, priority 2005, dated 2011).

Molecules are shown by their SMILES. Where two headings read alike, the source gives them in different places.

For this test, the target named is T1, human CXCR3 (N-delta 4) (Homo sapiens, UniProt P49682).
T1 construct: CD8 leader (N); Flag; expressed in transfected cells; membranes prepared
T1 sequence (P49682 5-368 limits assumed): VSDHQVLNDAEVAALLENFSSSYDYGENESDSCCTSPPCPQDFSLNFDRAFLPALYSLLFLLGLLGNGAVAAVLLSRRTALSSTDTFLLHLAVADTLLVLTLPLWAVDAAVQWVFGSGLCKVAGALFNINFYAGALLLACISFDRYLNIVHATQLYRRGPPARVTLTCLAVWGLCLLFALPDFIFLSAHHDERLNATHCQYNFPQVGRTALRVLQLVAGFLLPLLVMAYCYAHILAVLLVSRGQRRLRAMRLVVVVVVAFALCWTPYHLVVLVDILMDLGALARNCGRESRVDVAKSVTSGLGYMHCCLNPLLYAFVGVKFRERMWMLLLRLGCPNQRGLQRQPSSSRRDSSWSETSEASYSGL
The test can be described thus: Human CXCR3 (N-delta 4) Scintillation Proximity Assay (SPA), [125I] IP-10 binding to Ba/F3-hCXCR3 membranes. As to conditions: read-out: IC50. On the technique in general: In a scintillation proximity assay essentially only radioactivity close to the scintillant gives light.

As for `CC[C@H]1CN(c2ncc(C(=O)NC3CC3)nc2C)CCN1C1CCN(C(=O)c2ccc(C)cc2)CC1` [compound 446], the IC50 (IC50 rating, Table 1) was less than 25 nM.
Same read-out and setting: then `CC[C@H]1CN(c2nc(N)c(C(=O)NCCN/C(N)=N/C#N)nc2Cl)CCN1C1CCN(Cc2ccc(Cl)cc2C#N)CC1` [compound 236], with more than 100 nM; and `CC[C@H]1CN(c2nc(N)c(C(=O)NCCO)nc2Cl)CCN1C1CCN([C@H](C(=O)OC)c2ccc(Cl)cc2)CC1` [compound 192], with more than 100 nM; and `CC[C@H]1CN(c2nc(N)c(C(=O)NCCO)nc2Cl)CCN1C1CCN(C(CCO)c2ccc(Cl)cc2)CC1` (stereo partly shown) [compound 170], with less than 25 nM.
`CC[C@H]1CN(c2nc(N)c(C(=O)NCCO)nc2Cl)CCN1C1CCN(C(=O)c2ccc(Cl)cc2OCCNS(=O)(=O)C(F)(F)F)CC1` [compound 316]: the IC50 (IC50 rating, Table 1) was less than 25 nM.
Same read-out and setting: then `CC[C@H]1CN(c2nc(N)c(C(=O)NC)nc2Cl)CCN1C1CCN(C(=O)c2ccc(OC(F)(F)F)cc2)CC1` [compound 350], with 25 to 100 nM.
The same measure, in the same setting: next, `CC[C@H]1CN(c2nc(N)c(C(=O)NCCNS(=O)(=O)N(C)C)nc2Cl)CCN1C1CCN(Cc2ccc(C#N)cc2)CC1` [compound 255]: 25 to 100 nM; `CC[C@H]1CN(c2nc(N)c(C(=O)NNC(C)=O)nc2Cl)CCN1C1CCN(C(=O)c2ccc(Cl)cc2)CC1` [compound 373]: more than 100 nM.
On to `CCc1nc(C(N)=O)cnc1N1CCN(C2CCN(C(=O)c3ccc(Cl)cc3)CC2)[C@@H](CC)C1` [compound 423], for which the 50% inhibitory concentration (IC50) (IC50 rating, Table 1) lay within 25 to 100 nM.
Still for that read-out and setting: next, `CC[C@H]1CN(c2nc(N)c(C(=O)N[C@H]3CCN(C)C3=O)nc2Cl)CCN1C1CCN(Cc2ccc(C#N)cc2)CC1` [compound 211]: more than 100 nM; `CC[C@H]1CN(c2nc(N)c(C(N)=O)nc2Cl)CCN1C1CCN(Cc2ccc(Cl)cc2C(N)C(N)=O)CC1` (stereo partly shown) [compound 381]: 25 to 100 nM; `CC[C@H]1CN(c2ncc(C(=O)NC3CC3)nc2C)CCN1C1CCN([C@@H](C(=O)OC)c2ccc(Cl)cc2)CC1` [compound 485]: less than 25 nM.
On the same count and under the same terms, then `CC[C@H]1CN(c2ncc(C(N)=O)nc2Cl)CCN1C1CCN(Cc2ccc(Cl)cc2[C@H](O)C(N)=O)CC1` [compound 396], with less than 25 nM.
Same read-out and setting: then `CC[C@H]1CN(c2nc(N)c(C(=O)NCCO)nc2Cl)CCN1C1CCN(Cc2ccc(F)c(F)c2N2CC[C@@H](O)C2)CC1` [compound 135], with less than 25 nM; and `CC[C@H]1CN(c2nc(N)c(C(=O)NC[C@H](O)CO)nc2Cl)CCN1C1CCN(C(=O)c2ccc(Cl)cc2)CC1` [compound 359], with more than 100 nM; and `CC[C@H]1CN(c2nc(N)c(C(=O)NCCN)nc2Cl)CCN1C1CCN(Cc2ccc(Cl)cc2)CC1` [compound 233], with less than 25 nM.
Consider `CCNC(=O)NCCc1cc(Cl)ccc1CN1CCC(N2CCN(c3nc(N)c(C(=O)OC)nc3Cl)C[C@@H]2CC)CC1` [compound 298], for which the IC50 (IC50 rating, Table 1) was 25 to 100 nM.
The same measure, in the same setting: then `CC[C@H]1CN(c2nc(N)c(C(=O)NCCO)nc2Cl)CCN1C1CCN(Cc2ccc(F)c(OS(C)(=O)=O)c2)CC1` [compound 421], with less than 25 nM.
The same measure, in the same setting: next, `CC[C@H]1CN(c2nc(N)c(C(=O)NC[C@@H](C)O)nc2Cl)CCN1C1CCN(C(=O)c2ccc(Cl)cc2)CC1` [compound 338]: less than 25 nM.
As to `CC[C@H]1CN(c2ncc(C(=O)NC3CC3)nc2C)CCN1C1CCN(Cc2ccc(C(F)(F)F)cc2)CC1` [compound 473], the 50% inhibitory concentration (IC50) (IC50 rating, Table 1) was less than 25 nM.
In the case of `CC[C@H]1CN(c2nc(N)c(C(N)=O)nc2Cl)CCN1C1CCN(Cc2ccc(Cl)cc2C2NC(=O)NC2=O)CC1` (stereo partly shown) [compound 405], the IC50 (IC50 rating, Table 1) was more than 100 nM.
For `CC[C@H]1CN(c2nc(N)c(C(=O)NCCO)nc2Cl)CCN1C1CCN(Cc2ccc(OC(F)(F)F)cc2)CC1` [compound 112], for the setting “IC50 rating, Table 1”, the IC50 is less than 25 nM.
On to `CC[C@H]1CN(c2nc(N)c(C(=O)N[C@@H]3CCNC3=O)nc2Cl)CCN1C1CCN(Cc2ccc(C#N)cc2)CC1` [compound 280], for which, where the note is “IC50 rating, Table 1”, the IC50 was more than 100 nM.
The same measure, in the same setting: next, `CC[C@H]1CN(c2nc(N)c(C(=O)NCCO)nc2Cl)CCN1C1CCN(Cc2cc(F)c(F)c(F)c2O)CC1` [compound 181]: 25 to 100 nM; `CC[C@H]1CN(c2nc(N)c(C(N)=O)nc2Cl)CCN1C1CCN(Cc2ccc(Cl)cc2[C@H](O)C(N)=O)CC1` [compound 11]: less than 25 nM.
The same measure, in the same setting: then `CC[C@H]1CN(c2nc(N)c(C(=O)NC)nc2Cl)CCN1C1(C)CCN(Cc2ccc(Cl)cc2)CC1` [compound 80], with more than 100 nM; and `CC[C@H]1CN(c2ncc(C(N)=O)nc2C)[C@H](C)CN1C1CCN([C@@H](CO)c2ccc(Cl)cc2)CC1` [compound 453], with less than 25 nM.
Same read-out and setting: then `CC[C@H]1CN(c2nc(N)c(C(=O)NCCO)nc2Cl)CCN1C1CCN(Cc2ccc(Cl)cc2C(=N)NC)CC1` [compound 151], with less than 25 nM.
Turning to `CC[C@H]1CN(c2nc(N)c(C(=O)NC)nc2Cl)CCN1C1CCN(C(=O)c2ccc(Cl)cc2NC)CC1` [compound 366], where the note is “IC50 rating, Table 1”, the IC50 was more than 100 nM.
Same read-out and setting: then `CC[C@H]1CN(c2nc(N)c(C(=O)NCCO)nc2Cl)CCN1C1CCN(Cc2ccc(Cl)cc2-c2cnc(N)nc2)CC1` [compound 171], with less than 25 nM; and `CC[C@H]1CN(c2nc(N)c(C(=O)NCCO)nc2Cl)CCN1C1CCN(Cc2ccc(F)c(F)c2N2CCOCC2)CC1` [compound 183], with 25 to 100 nM.
Still for that read-out and setting: next, `CC[C@H]1CN(c2nc(N)c(C(N)=O)nc2Cl)CCN1C1CCN(Cc2ccc(Cl)cc2C(O)CO)CC1` (stereo partly shown) [compound 7]: less than 25 nM; `CC[C@H]1CN(c2nc(N)c(C(=O)NCCO)nc2Cl)CCN1C1CCN(Cc2ccc(Cl)cc2C(N)=O)CC1` [compound 127]: less than 25 nM.
On the same count and under the same terms, next, `CC[C@H]1CN(c2nc(N)c(C(=O)NCCO)nc2Cl)CCN1C1CCN(Cc2ccc(Cl)cc2NS(C)(=O)=O)CC1` [compound 196]: more than 100 nM; `CC[C@H]1CN(c2nc(N)c(C(N)=O)nc2Cl)CCN1C1CCN(Cc2ccc(Cl)cc2C(C)CO)CC1` (stereo partly shown) [compound 14]: less than 25 nM; `CC[C@H]1CN(c2nc(N)c(C(N)=O)nc2Cl)CCN1C1CCN(C(CNS(C)(=O)=O)c2ccc(Cl)cc2)CC1` (stereo partly shown) [compound 58]: more than 100 nM.
Regarding `CC[C@H]1CN(c2nc(N)c(C(=O)NCCO)nc2Cl)CCN1C1CCN(Cc2ccc(Cl)cc2OCC(N)=O)CC1` [compound 149], the IC50 (IC50 rating, Table 1) is less than 25 nM.
On to `CC[C@H]1CN(c2nc(N)c(C(=O)N[C@H](CO)C(C)C)nc2Cl)CCN1C1CCN(C(=O)c2ccc(Cl)cc2)CC1` [compound 329], for which the IC50 (IC50 rating, Table 1) is more than 100 nM.
The same measure, in the same setting: next, `CC[C@H]1CN(c2nc(N)c(C(=O)NC)nc2Cl)CCN1C1CCN(CCCOc2ccc(F)cc2)CC1` [compound 78]: more than 100 nM; `CC[C@H]1CN(c2nc(N)c(C(=O)NCCO)nc2Cl)CCN1C1CCN(Cc2ccc(Cl)cc2OCCNC(=O)NC2CCCCC2)CC1` [compound 131]: less than 25 nM.
As to `CC[C@H]1CN(c2nc(N)c(C(=O)NCCO)nc2Cl)CCN1C1CCN(Cc2ccc(Cl)cc2CO)CC1` [compound 107], the concentration for half-maximal inhibition (IC50) turned out to be 0.2 nM. Further, for the setting “IC50 rating, Table 1”, the 50% inhibitory concentration (IC50) is less than 25 nM.
`CC[C@H]1CN(c2nc(N)c(C(N)=O)nc2Cl)CCN1C1CCN(Cc2ccc(Cl)cc2C(=O)O)CC1` [compound 26]: the IC50 (IC50 rating, Table 1) was 25 to 100 nM.
On the same count and under the same terms, then `CC[C@H]1CN(c2nc(N)c(C(=O)NCCO)nc2Cl)CCN1C1CCN(Cc2ccc(F)c(F)c2N2CCC(=O)C2)CC1` [compound 188], with 25 to 100 nM; and `CC[C@H]1CN(c2nc(N)c(C(=O)NC)nc2Cl)CCN1C1CCN(C(=O)c2ccc(Br)cc2F)CC1` [compound 342], with 25 to 100 nM.
Still for that read-out and setting: then `CC[C@H]1CN(c2nc(N)c(C(=O)NCCO)nc2Cl)CCN1C1CCN(Cc2ccc(Cl)cc2OCCCO)CC1` [compound 169], with less than 25 nM; and `CC[C@H]1CN(c2nc(N)c(C(=O)NC)nc2Cl)CCN1C1CCN([C@@H](C(=O)OC)c2ccc(Cl)cc2)CC1` [compound 69], with less than 25 nM.
Still for that read-out and setting: then `CC[C@H]1CN(c2nc(N)c(C(N)=O)nc2Cl)CCN1C1CCN(Cc2ccc(Cl)cc2C(=N)N)CC1` [compound 2], with less than 25 nM; and `CC[C@H]1CN(c2nc(N)c(C(=O)OC)nc2Cl)CCN1C1CCN(Cc2ccc(C#N)cc2O)CC1` [compound 306], with more than 100 nM.
On to `CC[C@H]1CN(c2nc(N)c(C(=O)NCCO)nc2Cl)CCN1C1CCN(C(=O)c2ccc(Cl)cc2CCNS(C)(=O)=O)CC1` [compound 347], for which the IC50 (IC50 rating, Table 1) fell in the range of 25 to 100 nM.
Still for that read-out and setting: then `CC[C@H]1CN(c2nc(N)c(C(N)=O)nc2Cl)CCN1C1CCN(Cc2ccc(Cl)cc2C(C)(C)CO)CC1` [compound 19], with less than 25 nM; and `CC[C@H]1CN(c2nc(NCc3ccc(F)c(F)c3)c(C(=O)NCCNS(N)(=O)=O)nc2Cl)CCN1C1CCN(Cc2ccc(F)c(F)c2)CC1` [compound 256], with less than 25 nM; and `CC[C@H]1CN(c2ncc(C(=O)NC3CC3)nc2C)CCN1C1CCN(C(=O)c2ccc(F)cc2)CC1` [compound 447], with less than 25 nM.
On to `CC[C@H]1CN(c2nc(N)c(C(=O)NC)nc2Cl)CCN1C1CCN([C@H](C(=O)OC)c2ccc(Cl)cc2)CC1` [compound 77], for which, for the setting “IC50 rating, Table 1”, the IC50 was more than 100 nM.
The same measure, in the same setting: then `CC[C@H]1CN(c2nc(N)c(C(=O)NCCNS(C)(=O)=O)nc2Cl)CCN1C1CCN([C@@H](CO)c2ccc(Cl)cc2)CC1` [compound 244], with less than 25 nM; and `CC[C@H]1CN(c2nc(N)c(C(N)=O)nc2Cl)CCN1C1CCN(Cc2ccc(Cl)cc2S(N)(=O)=O)CC1` [compound 401], with less than 25 nM.
On the same count and under the same terms, next, `CC[C@H]1CN(c2nc(N)c(C(=O)NC3CC3)nc2Cl)CCN1C1CCN(Cc2ccc(C#N)cc2OCCO)CC1` [compound 86]: less than 25 nM; `CC[C@H]1CN(c2ncc(C(=O)NC3(C)CC3)nc2C)[C@H](C)CN1C1CCN(C(=O)c2ccc(Cl)cc2)CC1` [compound 479]: less than 25 nM.

The IC50 is the midpoint of a concentration-inhibition curve.
